The subject of experiment [1] is Bacillus subtilis. Briefly: Antibacterial activity against Bacillus subtilis MTCC 619 at 1000 ug/ml after 24 hrs by agar diffusion method. The conditions noted are these: MTCC 619, 24 h, read-out: IZ. Type of experiment: functional. A general note: A growth-free zone around the sample is the usual read-out of agar diffusion tests.
Experiment [2] has as its system Staphylococcus aureus. Briefly: Antibacterial activity against Staphylococcus aureus MTCC 96 at 1000 ug/ml after 24 hrs by agar diffusion method. Type of experiment: functional. The conditions noted are these: MTCC 96, 24 h, read-out: IZ.
Experiment [3] relates to Escherichia coli. Briefly: Antibacterial activity against Escherichia coli MTCC 722 at 1000 ug/ml after 24 hrs by agar diffusion method. Type of experiment: functional. The conditions noted are these: MTCC 722, 24 h, read-out: IZ.
Experiment [4] concerns Klebsiella pneumoniae. Briefly: Antibacterial activity against Klebsiella pneumoniae MTCC 109 at 1000 ug/ml after 24 hrs by agar diffusion method. The note with it: MTCC 109, 24 h, read-out: IZ. Type of experiment: functional.
Experiment [5] deals with Aspergillus flavus. Briefly: Antifungal activity against Aspergillus flavus at 500 ug/ml after 3 days by diffusion method. Type of experiment: functional, organism-based.
Experiment [6] relates to Aspergillus flavus. The experiment is described as follows: Antifungal activity against Aspergillus flavus at 1000 ug/ml after 3 days by diffusion method. Type of experiment: functional, organism-based.
Experiment [7] relates to Fusarium. The experiment is described as follows: Antifungal activity against Fusarium at 500 ug/ml after 3 days by diffusion method. Type of experiment: functional, organism-based.
Experiment [8] has as its system Fusarium. The experiment is described as follows: Antifungal activity against Fusarium at 1000 ug/ml after 3 days by diffusion method. Type of experiment: functional, organism-based.
For experiment [9], the system named is Bacillus subtilis. The experiment is described as follows: Antibacterial activity against Bacillus subtilis MTCC 619 after 24 hrs by liquid dilution method. Type of experiment: functional. The conditions noted are these: MTCC 619, 24 h.
Experiment [10] relates to Staphylococcus aureus. The experiment is described as follows: Antibacterial activity against Staphylococcus aureus MTCC 96 after 24 hrs by liquid dilution method. Type of experiment: functional. The conditions noted are these: MTCC 96, 24 h.
The test system of experiment [11] is Escherichia coli. The experiment is described as follows: Antibacterial activity against Escherichia coli MTCC 722 after 24 hrs by liquid dilution method. Type of experiment: functional. The note with it: MTCC 722, 24 h.
Experiment [12] relates to Klebsiella pneumoniae. The experiment is described as follows: Antibacterial activity against Klebsiella pneumoniae MTCC 109 after 24 hrs by liquid dilution method. Type of experiment: functional. The conditions noted are these: MTCC 109, 24 h.

Converted amounts (≈) assume the structure as drawn. The source made the active and inactive calls.

`Cc1cccc2c1/N=C/c1ccccc1/C=N/c1c(C)cccc1OCCO2`: the zone of inhibition at 1000 µg/mL stood at 12 mm in the experiment with Bacillus subtilis [1], 14 mm with Staphylococcus aureus [2], 11 mm in the experiment with Escherichia coli [3] and 12 mm in the experiment with Klebsiella pneumoniae [4]. Also, the result with Aspergillus flavus [5], in the experiment with Aspergillus flavus [6], in the experiment on Fusarium [7] and in the experiment with Fusarium [8] was Active.
Take `C1=N/c2cc3ccccc3cc2OCCCOc2cc3ccccc3cc2/N=C/c2ccccc2/1`: the zone of inhibition at 1000 µg/mL with Bacillus subtilis [1] was 13 mm; with Staphylococcus aureus [2] it was 14 mm; in the experiment with Escherichia coli [3], 13 mm; with Klebsiella pneumoniae [4], 11 mm. The outcome in the experiment with Aspergillus flavus [5], in the experiment on Aspergillus flavus [6], in the experiment with Fusarium [7] and with Fusarium [8] was Active.
The MIC is the smallest concentration in the dilution series that meets the test's criterion for growth inhibition. Higher therefore signals weaker potency. For the compound `CN[C@@H]1[C@H](O[C@H]2[C@H](O[C@H]3[C@H](O)[C@@H](O)[C@H](N=C(N)N)[C@@H](O)[C@@H]3N=C(N)N)O[C@@H](C)[C@]2(O)C=O)O[C@@H](CO)[C@H](O)[C@H]1O` [STREPTOMYCIN], the zone of inhibition at 1000 µg/mL with Bacillus subtilis [1] was determined as 10 mm; with Staphylococcus aureus [2], 12 mm; in the experiment on Escherichia coli [3], 6 mm; in the experiment on Klebsiella pneumoniae [4], 6 mm. Moreover, it took 2 µg/mL (≈ 3.44 µM) to inhibit growth in the experiment on Bacillus subtilis [9] (MIC).
As for `Cc1ccc2c(c1)/N=C/c1ccccc1/C=N/c1cc(C)ccc1OCCO2`, the zone of inhibition at 1000 µg/mL in the experiment on Bacillus subtilis [1] came to 14 mm; in the experiment on Staphylococcus aureus [2] it was 12 mm; with Escherichia coli [3], 13 mm; in the experiment with Klebsiella pneumoniae [4] it was 10 mm. Further, the result with Aspergillus flavus [5], in the experiment on Aspergillus flavus [6], in the experiment with Fusarium [7] and with Fusarium [8] was Active.
For the compound `CC1(C)S[C@@H]2[C@H](NC(=O)[C@H](N)c3ccccc3)C(=O)N2[C@H]1C(=O)O` [AMPICILLIN], the zone of inhibition at 1000 µg/mL with Bacillus subtilis [1] turned out to be 11 mm; with Staphylococcus aureus [2], 13 mm; with Escherichia coli [3], 8 mm; in the experiment with Klebsiella pneumoniae [4] it was 7 mm.
Turning to `C1=N/c2ccccc2OCCCOc2ccccc2/N=C/c2ccccc2/1`, the zone of inhibition at 1000 µg/mL with Bacillus subtilis [1] amounted to 10 mm; in the experiment with Staphylococcus aureus [2], 11 mm; in the experiment on Escherichia coli [3], 11 mm; with Klebsiella pneumoniae [4], 12 mm. In addition, the result in the experiment with Aspergillus flavus [5], with Aspergillus flavus [6], in the experiment with Fusarium [7] and with Fusarium [8] was Active.
In the case of `C1=N/c2cc3ccccc3cc2OCCOc2cc3ccccc3cc2/N=C/c2ccccc2/1`, the zone of inhibition at 1000 µg/mL with Bacillus subtilis [1] was 15 mm; in the experiment with Staphylococcus aureus [2] it was 15 mm; in the experiment with Escherichia coli [3], 14 mm; with Klebsiella pneumoniae [4], 14 mm. The result in the experiment with Aspergillus flavus [5], in the experiment with Aspergillus flavus [6], in the experiment on Fusarium [7] and with Fusarium [8] was Active.
As for `C1=N/c2ncccc2OCCCOc2cccnc2/N=C/c2ccccc2/1`, the zone of inhibition at 1000 µg/mL with Bacillus subtilis [1] turned out to be 35 mm; with Staphylococcus aureus [2] it was 30 mm; with Escherichia coli [3] it was 32 mm; in the experiment with Klebsiella pneumoniae [4], 29 mm. Also, the MIC came out at 10 µg/mL (≈ 27.9 µM) in the experiment on Bacillus subtilis [9], 2 µg/mL (≈ 5.58 µM) in the experiment with Staphylococcus aureus [10], 2 µg/mL (≈ 5.58 µM) in the experiment on Escherichia coli [11] and 2 µg/mL (≈ 5.58 µM) against Klebsiella pneumoniae [12]. Moreover, the outcome in the experiment with Aspergillus flavus [5], with Aspergillus flavus [6], in the experiment on Fusarium [7] and in the experiment on Fusarium [8] was Active.
In the case of `Cc1cccc2c1/N=C/c1ccccc1/C=N/c1c(C)cccc1OCCCO2`, the zone of inhibition at 1000 µg/mL is 13 mm in the experiment on Bacillus subtilis [1], 15 mm in the experiment on Staphylococcus aureus [2], 12 mm in the experiment on Escherichia coli [3] and 11 mm in the experiment with Klebsiella pneumoniae [4]. Also, the result in the experiment with Aspergillus flavus [5], with Aspergillus flavus [6], in the experiment on Fusarium [7] and with Fusarium [8] was Active.
`C1=N/c2ncccc2OCCOc2cccnc2/N=C/c2ccccc2/1`: the zone of inhibition at 1000 µg/mL is 38 mm in the experiment on Bacillus subtilis [1], 35 mm with Staphylococcus aureus [2], 40 mm in the experiment with Escherichia coli [3] and 32 mm in the experiment with Klebsiella pneumoniae [4]. The MIC against Bacillus subtilis [9] was determined as 10 µg/mL (≈ 29 µM); with Staphylococcus aureus [10] it was 5 µg/mL (≈ 14.5 µM); in the experiment with Escherichia coli [11], 1 µg/mL (≈ 2.9 µM); with Klebsiella pneumoniae [12] it was 2 µg/mL (≈ 5.81 µM). The outcome in the experiment with Aspergillus flavus [5], in the experiment with Aspergillus flavus [6], with Fusarium [7] and in the experiment with Fusarium [8] was Active.
Regarding `Cc1ccc2c(c1)/N=C/c1ccccc1/C=N/c1cc(C)ccc1OCCCO2`, the zone of inhibition at 1000 µg/mL in the experiment on Bacillus subtilis [1] came to 13 mm; in the experiment with Staphylococcus aureus [2] it was 14 mm; in the experiment on Escherichia coli [3], 11 mm; in the experiment with Klebsiella pneumoniae [4] it was 12 mm. The result in the experiment with Aspergillus flavus [5], in the experiment with Aspergillus flavus [6], with Fusarium [7] and with Fusarium [8] was Active.
Regarding `C1=N/c2ccccc2OCCOc2ccccc2/N=C/c2ccccc2/1`, the zone of inhibition at 1000 µg/mL with Bacillus subtilis [1] worked out at 11 mm; in the experiment with Staphylococcus aureus [2] it was 12 mm; in the experiment on Escherichia coli [3], 10 mm; with Klebsiella pneumoniae [4] it was 12 mm. Further, the result with Aspergillus flavus [5], with Aspergillus flavus [6], in the experiment on Fusarium [7] and in the experiment on Fusarium [8] was Active.
For the compound `CO[C@H]1/C=C/O[C@@]2(C)Oc3c(C)c(O)c4c(O)c(c(/C=N/N5CCN(C)CC5)c(O)c4c3C2=O)NC(=O)/C(C)=C\C=C\[C@H](C)[C@H](O)[C@@H](C)[C@@H](O)[C@@H](C)[C@H](OC(C)=O)[C@@H]1C` [RIFAMPIN], the zone of inhibition at 1000 µg/mL with Bacillus subtilis [1] turned out to be 51 mm; with Staphylococcus aureus [2], 49 mm; in the experiment with Escherichia coli [3], 48 mm; with Klebsiella pneumoniae [4], 45 mm. In addition, the MIC was 10 µg/mL (≈ 12.2 µM) with Bacillus subtilis [9], 0.25 µg/mL (≈ 0.304 µM) against Staphylococcus aureus [10], 0.25 µg/mL (≈ 0.304 µM) with Escherichia coli [11] and 0.25 µg/mL (≈ 0.304 µM) in the experiment with Klebsiella pneumoniae [12].

These data come from ChEMBL document CHEMBL1158350, “Physicochemical and biological characterization of novel macrocycles derived from o-phthalaldehyde” (2009).
